# Laboratory results published in patent US8961624B2, “Ortho-phenylphenol compounds as markers for liquid hydrocarbons and other fuels and oils” (Dow Global Technologies LLC, priority 2011, dated 2015).
# How the values were obtained:
# [1] = Solubility in organic solvents at −10° C.; format: physicochemical; conditions: for soluble at (concentration) in DMAc / soluble at (concentration) in NMP / soluble at (concentration) in dipropylene glycol dimethyl ether / soluble at (concentration) in tetralin: −10° C.; for soluble at (concentration) in AROMATIC 200: AROMATIC 200, −10° C.
# [2] = Solubility of Ex. 13 Product (cold storage of 10% w/w solution in AROMATIC 200); format: physicochemical; conditions: 10% w/w solution in AROMATIC 200, −11° C. freezer for 2 weeks
# Procedure: Solubility of Ex. 13 Product: A solution (10% w/w) in AROMATIC 200 was prepared at room temperature. The clear solution was placed in a −11° C. freezer for 2 weeks.
Structure (SMILES),soluble at (concentration) in DMAc [1] [%],soluble at (concentration) in NMP [1] [%],soluble at (concentration) in dipropylene glycol dimethyl ether [1] [%],melting point [°C],soluble at (concentration) in AROMATIC 200 [1] [%],soluble at (concentration) in tetralin [1] [%],crystallization from solution on cold storage [2]
"CCCCCCCCCCCCOc1ccccc1-c1ccccc1 [2-(dodecyloxy)-1,1′-biphenyl]",–,–,10,27 to 29,10,10,–
"CCCCCCCCCCCCCCCCCCOc1ccccc1-c1ccccc1 [2-(octadecyloxy)-1,1′-biphenyl]",–,–,–,42 to 45,–,< 5,–
"O=C(Oc1ccccc1-c1ccccc1)c1ccccc1 [Ex. 13 Product, [1,1′-biphenyl]-2-yl benzoate]",–,–,–,–,–,–,No visibly detectable crystallization occurred
"CCCCCCCCCCCCCCOc1ccccc1-c1ccccc1 [2-(tetradecyloxy)-1,1′-biphenyl]",–,–,–,–,–,7.5,–

# The next lines start with results.
soluble at (concentration) in DMAc [1] [%],soluble at (concentration) in NMP [1] [%],soluble at (concentration) in dipropylene glycol dimethyl ether [1] [%],melting point [°C],soluble at (concentration) in AROMATIC 200 [1] [%],soluble at (concentration) in tetralin [1] [%],Structure (SMILES),crystallization from solution on cold storage [2]
10,10,10,62 to 67,–,–,"c1ccc(-c2ccccc2OCCCCOc2ccccc2-c2ccccc2)cc1 [1,4-bis([1,1′-biphenyl]-2-yloxy)butane]",–
–,10,–,149 to 151,–,–,"c1ccc(-c2ccccc2OCc2ccc(-c3ccc(COc4ccccc4-c4ccccc4)cc3)cc2)cc1 [4,4′-bis(([1,1′-biphenyl]-2-yloxy)methyl)-1,1′-biphenyl]",–
10,10,10,–,10,10,"c1ccc(-c2ccccc2OCc2ccccc2COc2ccccc2-c2ccccc2)cc1 [1,2-bis(([1,1′-biphenyl]-2-yloxy)-methyl)benzene]",–
–,10,–,140 to 142,–,–,"c1ccc(-c2ccccc2OCc2ccc(COc3ccccc3-c3ccccc3)cc2)cc1 [1,4-bis(([1,1′-biphenyl]-2-yloxy)-methyl)benzene]",–
